Results taken from ChEMBL document CHEMBL4507324 (2021).

Assays:
Conditions in all cases: Compound concentration 100.0 nM
[1] = target: Serine/threonine-protein kinase 3 (Homo sapiens) (UniProt Q13188)
[2] = target: Phosphatidylinositol 3-kinase C2 domain-containing subunit gamma (Homo sapiens) (UniProt O75747)
[3] = target: Activin receptor type-1B (Homo sapiens) (UniProt P36896)
[4] = tested on: Phosphatidylinositol 4,5-bisphosphate 3-kinase catalytic subunit alpha isoform (Homo sapiens), P42336 [H1047L]
Sequence of Phosphatidylinositol 4,5-bisphosphate 3-kinase catalytic subunit alpha isoform (Homo sapiens), P42336 [H1047L] (P42336 whole entry H1047L, canonical isoform): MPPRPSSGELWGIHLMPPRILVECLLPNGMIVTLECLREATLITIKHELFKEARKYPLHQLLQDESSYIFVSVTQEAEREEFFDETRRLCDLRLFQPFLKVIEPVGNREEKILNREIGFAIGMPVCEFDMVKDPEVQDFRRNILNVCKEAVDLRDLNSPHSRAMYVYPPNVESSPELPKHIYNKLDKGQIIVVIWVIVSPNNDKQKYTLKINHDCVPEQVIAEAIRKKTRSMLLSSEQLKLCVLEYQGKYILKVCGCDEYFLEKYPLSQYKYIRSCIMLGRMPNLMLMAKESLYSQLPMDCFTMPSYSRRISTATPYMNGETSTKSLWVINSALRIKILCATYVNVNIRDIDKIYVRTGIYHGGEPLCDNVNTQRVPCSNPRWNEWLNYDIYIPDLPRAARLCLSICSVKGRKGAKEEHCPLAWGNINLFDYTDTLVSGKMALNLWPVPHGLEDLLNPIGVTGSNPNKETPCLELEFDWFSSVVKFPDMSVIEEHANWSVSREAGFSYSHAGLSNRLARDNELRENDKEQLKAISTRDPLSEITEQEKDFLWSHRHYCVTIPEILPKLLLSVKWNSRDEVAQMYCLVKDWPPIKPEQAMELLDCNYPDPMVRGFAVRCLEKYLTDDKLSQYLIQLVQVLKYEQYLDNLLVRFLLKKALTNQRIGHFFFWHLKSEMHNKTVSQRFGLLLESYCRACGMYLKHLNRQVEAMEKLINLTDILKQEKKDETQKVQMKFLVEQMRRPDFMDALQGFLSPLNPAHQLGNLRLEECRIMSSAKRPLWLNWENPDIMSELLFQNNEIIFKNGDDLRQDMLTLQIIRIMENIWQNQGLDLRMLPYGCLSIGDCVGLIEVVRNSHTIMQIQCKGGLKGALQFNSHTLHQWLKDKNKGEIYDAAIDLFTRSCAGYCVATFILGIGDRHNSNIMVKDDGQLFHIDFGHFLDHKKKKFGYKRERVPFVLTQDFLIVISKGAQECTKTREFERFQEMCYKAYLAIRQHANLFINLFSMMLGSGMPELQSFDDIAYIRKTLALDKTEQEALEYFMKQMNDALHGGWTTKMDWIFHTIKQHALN

[5] = target: Serine/threonine-protein kinase 25 (Homo sapiens) (UniProt O00506)
[6] = target: Serine/threonine-protein kinase MRCK alpha (Homo sapiens) (UniProt Q5VT25)
[7] = target: Testis-specific serine/threonine-protein kinase 1 (Homo sapiens) (UniProt Q9BXA7)
[8] = target: Receptor-type tyrosine-protein kinase FLT3 (Homo sapiens) (UniProt P36888)
[9] = target: Interleukin-1 receptor-associated kinase 3 (Homo sapiens) (UniProt Q9Y616)
[10] = target: Phosphatidylinositol 4,5-bisphosphate 3-kinase catalytic subunit alpha isoform (Homo sapiens) (UniProt P42336)
Sequence of Phosphatidylinositol 4,5-bisphosphate 3-kinase catalytic subunit alpha isoform (Homo sapiens) (P42336 whole entry, canonical isoform): as the sequence (P42336 whole entry H1047L, canonical isoform) above, with L1047H counted along it

[11] = target: Testis-specific serine/threonine-protein kinase 3 (Homo sapiens) (UniProt Q96PN8)
[12] = tested on: Receptor-type tyrosine-protein kinase FLT3 (Homo sapiens), P36888 [UNDEFINED MUTATION]
[13] = target: Homeodomain-interacting protein kinase 3 (Homo sapiens) (UniProt Q9H422)
[14] = target: LIM domain kinase 1 (Homo sapiens) (UniProt P53667)
[15] = target: Serine/threonine-protein kinase pim-2 (Homo sapiens) (UniProt Q9P1W9)
[16] = target: Serine/threonine-protein kinase TAO1 (Homo sapiens) (UniProt Q7L7X3)
[17] = target: Proto-oncogene tyrosine-protein kinase ROS (Homo sapiens) (UniProt P08922)
[18] = target: cGMP-dependent protein kinase 1 (Homo sapiens) (UniProt Q13976)
[19] = target: Tyrosine-protein kinase FRK (Homo sapiens) (UniProt P42685)
[20] = target: Mitogen-activated protein kinase kinase kinase kinase 2 (Homo sapiens) (UniProt Q12851)
Sequence of Mitogen-activated protein kinase kinase kinase kinase 2 (Homo sapiens) (Q12851 whole entry): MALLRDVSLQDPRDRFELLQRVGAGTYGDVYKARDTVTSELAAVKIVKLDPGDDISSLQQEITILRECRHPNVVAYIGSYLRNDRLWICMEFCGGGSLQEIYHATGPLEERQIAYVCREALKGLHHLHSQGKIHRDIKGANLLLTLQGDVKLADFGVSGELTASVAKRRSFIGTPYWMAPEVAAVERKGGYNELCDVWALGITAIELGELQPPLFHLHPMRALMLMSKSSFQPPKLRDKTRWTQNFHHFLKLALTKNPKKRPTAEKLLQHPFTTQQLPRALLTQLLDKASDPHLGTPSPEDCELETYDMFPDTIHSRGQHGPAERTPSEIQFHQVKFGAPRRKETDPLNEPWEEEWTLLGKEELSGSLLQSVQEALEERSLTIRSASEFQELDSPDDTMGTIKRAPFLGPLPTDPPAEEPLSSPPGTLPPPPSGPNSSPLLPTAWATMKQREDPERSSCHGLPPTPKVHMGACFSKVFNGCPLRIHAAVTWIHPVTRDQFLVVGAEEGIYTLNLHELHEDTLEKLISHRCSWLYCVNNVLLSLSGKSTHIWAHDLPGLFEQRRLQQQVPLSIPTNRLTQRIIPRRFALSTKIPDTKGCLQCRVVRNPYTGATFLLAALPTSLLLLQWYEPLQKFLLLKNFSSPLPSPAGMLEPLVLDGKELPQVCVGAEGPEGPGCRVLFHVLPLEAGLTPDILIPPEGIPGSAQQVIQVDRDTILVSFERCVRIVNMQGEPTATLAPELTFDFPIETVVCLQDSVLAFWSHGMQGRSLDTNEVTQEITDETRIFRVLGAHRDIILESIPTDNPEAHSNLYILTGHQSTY

[21] = target: Serine/threonine-protein kinase 16 (Homo sapiens) (UniProt O75716)
[22] = tested on: Phosphatidylinositol 4,5-bisphosphate 3-kinase catalytic subunit alpha isoform (Homo sapiens), P42336 [E545A]
Sequence of Phosphatidylinositol 4,5-bisphosphate 3-kinase catalytic subunit alpha isoform (Homo sapiens), P42336 [E545A] (P42336 whole entry E545A, canonical isoform): as the sequence (P42336 whole entry H1047L, canonical isoform) above, with E545A, L1047H counted along it

[23] = target: Protein kinase C theta type (Homo sapiens) (UniProt Q04759)
[24] = target: Mitogen-activated protein kinase kinase kinase kinase 3 (Homo sapiens) (UniProt Q8IVH8)
Sequence of Mitogen-activated protein kinase kinase kinase kinase 3 (Homo sapiens) (Q8IVH8 whole entry): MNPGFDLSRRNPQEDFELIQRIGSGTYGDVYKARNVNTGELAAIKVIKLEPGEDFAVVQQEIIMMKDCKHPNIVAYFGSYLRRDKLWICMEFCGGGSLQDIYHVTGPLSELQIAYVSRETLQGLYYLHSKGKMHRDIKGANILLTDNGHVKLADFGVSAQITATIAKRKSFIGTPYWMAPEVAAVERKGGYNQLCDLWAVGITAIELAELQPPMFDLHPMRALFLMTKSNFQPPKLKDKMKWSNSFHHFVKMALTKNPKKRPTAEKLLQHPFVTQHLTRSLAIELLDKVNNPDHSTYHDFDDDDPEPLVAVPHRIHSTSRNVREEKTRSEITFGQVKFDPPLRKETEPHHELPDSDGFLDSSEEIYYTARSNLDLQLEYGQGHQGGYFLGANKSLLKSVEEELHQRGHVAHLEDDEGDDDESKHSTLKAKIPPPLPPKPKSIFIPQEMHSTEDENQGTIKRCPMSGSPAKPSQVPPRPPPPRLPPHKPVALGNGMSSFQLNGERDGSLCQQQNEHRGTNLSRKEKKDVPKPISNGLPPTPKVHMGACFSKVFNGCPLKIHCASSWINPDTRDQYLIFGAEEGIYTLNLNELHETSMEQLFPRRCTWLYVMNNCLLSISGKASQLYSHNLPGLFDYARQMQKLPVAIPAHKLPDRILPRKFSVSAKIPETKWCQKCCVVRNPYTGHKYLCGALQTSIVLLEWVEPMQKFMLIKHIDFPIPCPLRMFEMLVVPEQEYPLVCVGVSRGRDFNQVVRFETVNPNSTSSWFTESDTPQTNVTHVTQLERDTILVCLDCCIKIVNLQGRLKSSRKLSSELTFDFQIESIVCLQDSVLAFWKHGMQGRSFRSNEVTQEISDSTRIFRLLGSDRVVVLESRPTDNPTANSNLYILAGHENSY

[25] = target: Serine/threonine-protein kinase Nek10 (Homo sapiens) (UniProt Q6ZWH5)
[26] = target: Calcium/calmodulin-dependent protein kinase type 1G (Homo sapiens) (UniProt Q96NX5)
[27] = target: Platelet-derived growth factor receptor beta (Homo sapiens) (UniProt P09619)
[28] = target: Vascular endothelial growth factor receptor 2 (Homo sapiens) (UniProt P35968)
[29] = target: Non-receptor tyrosine-protein kinase TYK2 (Homo sapiens) (UniProt P29597)
Sequence of Non-receptor tyrosine-protein kinase TYK2 (Homo sapiens) (P29597 whole entry): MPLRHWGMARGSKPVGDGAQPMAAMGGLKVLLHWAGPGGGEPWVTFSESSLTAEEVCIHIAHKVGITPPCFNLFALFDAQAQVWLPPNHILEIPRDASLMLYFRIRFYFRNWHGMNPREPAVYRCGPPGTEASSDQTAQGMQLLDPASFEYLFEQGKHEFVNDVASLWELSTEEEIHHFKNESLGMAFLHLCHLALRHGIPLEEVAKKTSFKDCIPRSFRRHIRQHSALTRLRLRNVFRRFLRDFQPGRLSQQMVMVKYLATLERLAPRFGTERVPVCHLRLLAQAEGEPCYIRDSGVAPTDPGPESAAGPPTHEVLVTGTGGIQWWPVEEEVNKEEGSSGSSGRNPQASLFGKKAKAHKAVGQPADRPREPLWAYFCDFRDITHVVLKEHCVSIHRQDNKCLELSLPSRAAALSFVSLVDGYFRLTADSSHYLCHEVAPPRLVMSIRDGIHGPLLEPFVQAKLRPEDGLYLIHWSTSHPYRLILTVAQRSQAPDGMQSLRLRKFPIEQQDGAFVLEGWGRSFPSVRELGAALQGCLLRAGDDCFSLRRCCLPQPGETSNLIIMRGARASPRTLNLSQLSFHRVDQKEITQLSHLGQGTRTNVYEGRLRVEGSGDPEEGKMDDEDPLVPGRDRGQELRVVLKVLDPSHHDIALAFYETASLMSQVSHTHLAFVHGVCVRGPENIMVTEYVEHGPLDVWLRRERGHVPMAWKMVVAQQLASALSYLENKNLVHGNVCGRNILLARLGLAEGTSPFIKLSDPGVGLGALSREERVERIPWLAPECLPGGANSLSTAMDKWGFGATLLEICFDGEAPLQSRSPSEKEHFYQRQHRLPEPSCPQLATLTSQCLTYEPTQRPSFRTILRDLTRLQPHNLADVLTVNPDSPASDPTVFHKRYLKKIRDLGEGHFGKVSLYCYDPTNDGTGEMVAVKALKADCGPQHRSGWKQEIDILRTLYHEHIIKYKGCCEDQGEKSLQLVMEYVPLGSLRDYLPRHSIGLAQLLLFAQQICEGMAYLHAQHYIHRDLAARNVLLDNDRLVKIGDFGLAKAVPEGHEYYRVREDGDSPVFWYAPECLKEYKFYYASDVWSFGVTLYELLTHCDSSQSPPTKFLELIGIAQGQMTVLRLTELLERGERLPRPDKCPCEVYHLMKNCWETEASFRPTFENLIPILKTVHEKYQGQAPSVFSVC

[30] = target: Transient receptor potential cation channel subfamily M member 6 (Homo sapiens) (UniProt Q9BX84)
[31] = target: Non-receptor tyrosine-protein kinase TYK2 (Homo sapiens) (UniProt P29597); remark: listed apart in the source
[32] = target: Vascular endothelial growth factor receptor 3 (Homo sapiens) (UniProt P35916)
[33] = target: Dual specificity tyrosine-phosphorylation-regulated kinase 1B (Homo sapiens) (UniProt Q9Y463)
[34] = target: Myosin-IIIa (Homo sapiens) (UniProt Q8NEV4)
[35] = target: Ephrin type-A receptor 4 (Homo sapiens) (UniProt P54764)
[36] = target: Mitogen-activated protein kinase kinase kinase 11 (Homo sapiens) (UniProt Q16584)
[37] = target: Dual specificity protein kinase CLK3 (Homo sapiens) (UniProt P49761)
[38] = target: Serine/threonine-protein kinase BRSK2 (Homo sapiens) (UniProt Q8IWQ3)
[39] = target: Ephrin type-A receptor 6 (Homo sapiens) (UniProt Q9UF33)
[40] = target: Tyrosine-protein kinase Fes/Fps (Homo sapiens) (UniProt P07332)
Sequence of Tyrosine-protein kinase Fes/Fps (Homo sapiens) (P07332 whole entry): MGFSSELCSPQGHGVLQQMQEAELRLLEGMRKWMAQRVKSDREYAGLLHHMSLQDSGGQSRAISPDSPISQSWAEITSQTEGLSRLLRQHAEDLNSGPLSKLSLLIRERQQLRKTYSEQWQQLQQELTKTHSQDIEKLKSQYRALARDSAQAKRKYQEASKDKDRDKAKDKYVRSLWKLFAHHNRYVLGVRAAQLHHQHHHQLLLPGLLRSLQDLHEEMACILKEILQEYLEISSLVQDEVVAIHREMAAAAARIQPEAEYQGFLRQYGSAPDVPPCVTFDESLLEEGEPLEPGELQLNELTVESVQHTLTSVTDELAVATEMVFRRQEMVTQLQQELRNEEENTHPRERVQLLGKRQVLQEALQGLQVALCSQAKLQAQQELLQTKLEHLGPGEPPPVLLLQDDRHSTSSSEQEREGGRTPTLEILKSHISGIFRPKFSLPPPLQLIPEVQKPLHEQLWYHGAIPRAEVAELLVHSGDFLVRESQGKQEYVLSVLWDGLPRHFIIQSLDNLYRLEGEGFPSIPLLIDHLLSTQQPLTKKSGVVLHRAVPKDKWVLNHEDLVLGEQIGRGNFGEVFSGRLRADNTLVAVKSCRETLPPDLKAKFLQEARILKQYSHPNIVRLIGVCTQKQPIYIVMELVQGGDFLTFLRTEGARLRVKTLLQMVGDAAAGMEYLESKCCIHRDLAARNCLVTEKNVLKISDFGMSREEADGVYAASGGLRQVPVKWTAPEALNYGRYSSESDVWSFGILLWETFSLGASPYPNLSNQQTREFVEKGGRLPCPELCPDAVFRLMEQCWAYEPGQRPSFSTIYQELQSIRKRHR

[41] = tested on: Epidermal growth factor receptor (Homo sapiens), P00533 [L858R,T790M]
[42] = target: Serine/threonine-protein kinase Nek1 (Homo sapiens) (UniProt Q96PY6)
[43] = target: Dual specificity tyrosine-phosphorylation-regulated kinase 2 (Homo sapiens) (UniProt Q92630)
[44] = target: Dual specificity mitogen-activated protein kinase kinase 5 (Homo sapiens) (UniProt Q13163)

Measured: residual activity

CS(=O)(=O)N1CCCC(NC(=O)[C@H](CCC2CCCCC2)NC(=O)c2ccc(CNc3ncnc4c3nnn4-c3ccccc3)cc2)C1 (stereo partly drawn) [SR-301]
inactive: [1] 95% | [2] 81% | [3] 94% | [4] 76% | [5] 90% | [6] 100% | [7] 85% | [8] 82% | [9] 100% | [10] 98% | [11] 100% | [12] 100% | [13] 100% | [14] 100% | [15] 88% | [16] 100% | [17] 91% | [18] 95% | [19] 60% | [20] 100% | [21] 100% | [22] 100% | [23] 90% | [24] 75% | [25] 100% | [26] 92% | [27] 86% | [28] 85% | [29] 99% | [30] 96% | [31] 100% | [32] 81% | [33] 100% | [34] 97% | [35] 76% | [36] 92% | [37] 85% | [38] 79% | [39] 100% | [40] 87% | [41] 84% | [42] 51% | [43] 100% | [44] 100%

CS(=O)(=O)N1CCCC(NC(=O)[C@H](CCC2CCCCC2)NC(=O)c2ccc(CNC(=O)c3cnc4ccccn34)cc2)C1 (stereo partly drawn) [SR-302]
inactive: [1] 88% | [2] 100% | [3] 96% | [4] 100% | [5] 100% | [6] 100% | [7] 94% | [8] 82% | [9] 65% | [10] 86% | [11] 93% | [12] 86% | [13] 100% | [14] 75% | [15] 100% | [16] 88% | [17] 100% | [18] 100% | [19] 77% | [20] 92% | [21] 100% | [22] 99% | [23] 97% | [24] 87% | [25] 100% | [26] 84% | [27] 100% | [28] 96% | [29] 84% | [30] 100% | [31] 86% | [32] 95% | [33] 100% | [34] 99% | [35] 98% | [36] 100% | [37] 100% | [38] 100% | [39] 100% | [40] 100% | [41] 100% | [42] 68% | [43] 100% | [44] 97%
